Measured values: ChEMBL document CHEMBL1255371, “Clonal spread of highly beta-lactam-resistant Streptococcus pneumoniae isolates in Taiwan” (2008)
In brackets after ≈: the same amount, converted by molar mass.

Assays:
Assay type in all cases: functional
Streptococcus pneumoniae [1] = assay: Antimicrobial activity against beta-lactam resistant Streptococcus pneumoniae clinical isolate by broth dilution method
Streptococcus pneumoniae [2] = assay: Antimicrobial activity against Streptococcus pneumoniae isolated from meningitis patient assessed as percent susceptible isolates by CLSI method
Streptococcus pneumoniae [3] = assay: Antimicrobial activity against Streptococcus pneumoniae isolated from meningitis patient assessed as percent resistant isolates by CLSI method
Streptococcus pneumoniae [4] = assay: Antimicrobial activity against Streptococcus pneumoniae isolated from patient with bacterial infection by broth dilution method
Streptococcus pneumoniae [5] = assay: Antimicrobial activity against Streptococcus pneumoniae isolated from cerebrospinal fluid of patient with bacterial infection by broth dilution method
Streptococcus pneumoniae [6] = assay: Antimicrobial activity against Streptococcus pneumoniae in meningitis patients by broth dilution method
Streptococcus pneumoniae [7] = assay: Antimicrobial activity against Streptococcus pneumoniae in non-meningitis patients by broth dilution method
Streptococcus pneumoniae [8] = assay: Antimicrobial activity against Streptococcus pneumoniae isolated from non-meningitis patient assessed as percent susceptible isolates by CLSI method
Streptococcus pneumoniae [9] = assay: Antimicrobial activity against Streptococcus pneumoniae isolated from non-meningitis patient assessed as percent resistant isolates by CLSI method

| SMILES | MIC50 (Streptococcus pneumoniae [1]) | MIC90 (Streptococcus pneumoniae [1]) | Activity (Streptococcus pneumoniae [2]) | Activity (Streptococcus pneumoniae [3]) | MIC (Streptococcus pneumoniae [4]) | MIC (Streptococcus pneumoniae [5]) | MIC (Streptococcus pneumoniae [6]) | MIC (Streptococcus pneumoniae [7]) | Activity (Streptococcus pneumoniae [8]) | Activity (Streptococcus pneumoniae [9]) | MIC (Streptococcus pneumoniae [1]) |
| --- | --- | --- | --- | --- | --- | --- | --- | --- | --- | --- | --- |
| CN[C@H](CC(C)C)C(=O)N[C@H]1C(=O)N[C@@H](CC(N)=O)C(=O)N[C@H]2C(=O)N[C@H]3C(=O)N[C@H](C(=O)N[C@H](C(=O)O)c4cc(O)cc(O)c4-c4cc3ccc4O)[C@H](O)c3ccc(c(Cl)c3)Oc3cc2cc(c3O[C@@H]2O[C@H](CO)[C@@H](O)[C@H](O)[C@H]2O[C@H]2C[C@](C)(N)[C@H](O)[C@H](C)O2)Oc2ccc(cc2Cl)[C@H]1O [VANCOMYCIN] | 0.25 µg/mL (≈ 0.173 µM) | 0.5 µg/mL (≈ 0.345 µM) | 100% | 0% |  |  |  |  |  |  |  |
| Nc1nc(/C(=N/O)C(=O)N[C@@H]2C(=O)N3C(C(=O)O)=C(/C=C4\CCN([C@@H]5CCNC5)C4=O)CS[C@H]23)ns1 [CEFTOBIPROLE] | 0.25 µg/mL (≈ 0.468 µM) | 0.5 µg/mL (≈ 0.935 µM) |  |  |  |  |  |  |  |  |  |
| CO/N=C(\C(=O)N[C@@H]1C(=O)N2C(C(=O)O)=C(COC(C)=O)CS[C@H]12)c1csc(N)n1 [CEFOTAXIME] | 0.5 µg/mL (≈ 1.1 µM) | 1 µg/mL (≈ 2.2 µM) | 58.5% | 6.9% | ≥ 2 µg/mL | 1 µg/mL (≈ 2.2 µM) | 1 µg/mL (≈ 2.2 µM) | < 2 µg/mL | 93.1% | 1.4% |  |
| CC[C@H]1OC(=O)[C@H](C)[C@@H](O[C@H]2C[C@@](C)(OC)[C@@H](O)[C@H](C)O2)[C@H](C)[C@@H](O[C@@H]2O[C@H](C)C[C@H](N(C)C)[C@H]2O)[C@](C)(O)C[C@@H](C)C(=O)[C@H](C)[C@@H](O)[C@]1(C)O [ERYTHROMYCIN] | > 32 µg/mL | > 32 µg/mL | 6.9% | 90.9% |  |  |  |  |  |  |  |
| CC1(C)S[C@@H]2[C@H](NC(=O)Cc3ccccc3)C(=O)N2[C@H]1C(=O)O [PENICILLIN G] | 1 µg/mL (≈ 2.99 µM) | 2 µg/mL (≈ 5.98 µM) | 16.8% | 44.5% | ≥ 0.1 µg/mL |  | ≥ 0.1 µg/mL | ≥ 4 µg/mL |  |  |  |
| CCCCCCCCCC(=O)N[C@@H](Cc1c[nH]c2ccccc12)C(=O)N[C@H](CC(N)=O)C(=O)N[C@@H](CC(=O)O)C(=O)N[C@@H]1C(=O)NCC(=O)N[C@@H](CCCN)C(=O)N[C@@H](CC(=O)O)C(=O)N[C@H](C)C(=O)N[C@@H](CC(=O)O)C(=O)NCC(=O)N[C@H](CO)C(=O)N[C@@H]([C@H](C)CC(=O)O)C(=O)N[C@@H](CC(=O)c2ccccc2N)C(=O)O[C@@H]1C | 0.06 µg/mL (≈ 0.037 µM) | 0.06 µg/mL (≈ 0.037 µM) |  |  |  |  |  |  |  |  |  |
| CN(C)c1cc(NC(=O)CNC(C)(C)C)c(O)c2c1C[C@H]1C[C@H]3[C@H](N(C)C)C(O)=C(C(N)=O)C(=O)[C@@]3(O)C(O)=C1C2=O [TIGECYCLINE] | ≤ 0.015 µg/mL | 0.03 µg/mL (≈ 0.0512 µM) |  |  |  |  |  |  |  |  | ≤ 0.015 µg/mL |
| C[C@H]1COc2c(N3CCN(C)CC3)c(F)cc3c(=O)c(C(=O)O)cn1c23.C[C@H]1COc2c(N3CCN(C)CC3)c(F)cc3c(=O)c(C(=O)O)cn1c23.O [LEVOFLOXACIN] | 1 µg/mL | 1 µg/mL | 98.1% | 1.9% |  |  |  |  |  |  |  |
| CO/N=C1\CN(c2nc3c(cc2F)c(=O)c(C(=O)O)cn3C2CC2)CC1CN (stereo unspecified) [GEMIFLOXACIN] | ≤ 0.03 µg/mL | ≤ 0.03 µg/mL | 98.9% | 1.1% |  |  |  |  |  |  | ≤ 0.03 µg/mL |
